According to patent US7790196B2, “Extracellular vesicles from non-pathogenic amoebae useful as vehicle for transferring a molecule of interest to an eukaryotic cell” (Universite Pierre et Marie Curie- Paris VI, priority 2003, dated 2010):

Assays:
Dd cells [1] = assay: Vesicle-mediated release of cargo molecule from Dd cells (micro-spectrofluorimetry of “12,000” vesicles); assay type: cell-based, Dictyostelium discoideum
Experimental: The capacity of Dd cells to internalise different exogenous molecules was studied. Further, their ability to release vesicles, in particular the “12,000” vesicles, carrying a broad-spectrum of molecules of interest was assessed. Flow cytometry and micro-spectrofluorimetry were used to measure respectively the cell internalisation and the vesicle-mediated release of the fluorescent cargo molecule as a function of incubation time in the growth medium. Growing Dd cells were incubated for different periods of time up to 72 h in the presence of the exogenous molecule. Fractions of the cells were fixed in 2% paraformaldehyde after each one of these increasing incubation times. Simultaneously, the externalised “12,000” vesicles were prepared from aliquots of the growth medium and concentrated (×20). As controls, Dd cells were grown in parallel without the cargo molecule and handled the same. Moreover, cell counting during growth allowed to check for any cytotoxicity of the studied molecule as a function of time. Cell and vesicle samples were kept at 4° C. until measurements.

Leukemic K562 cells = conditions: Asahi et al., 1995; cited from earlier work
Dd cells [2] = assay: Cytotoxicity of the cargo molecule towards growing Dd cells (cell counting during growth); assay type: cell-based, Dictyostelium discoideum
Experimental: The growth curve of Dd cells, continuously maintained with HO342 (10 μg/ml) since the initiation of the culture at a density of 3×10^6 cells/ml is shown on FIG. 3a. Images of Dd cells, fixed in 70% MeOH at different times (from 72 h to 216 h), show the aspect of the cells and of their HO342 stained nuclei. Apoptosis might increase as a function of time along the stationary plateau (Tatischeff et al., 2001), and the characteristic much smaller size of apoptotic cells were predominant for the t′216 fixed Dd cells (FIG. 3a).
The capacity of Dd cells to internalise different exogenous molecules was studied. Further, their ability to release vesicles, in particular the “12,000” vesicles, carrying a broad-spectrum of molecules of interest was assessed. Flow cytometry and micro-spectrofluorimetry were used to measure respectively the cell internalisation and the vesicle-mediated release of the fluorescent cargo molecule as a function of incubation time in the growth medium. Growing Dd cells were incubated for different periods of time up to 72 h in the presence of the exogenous molecule. Fractions of the cells were fixed in 2% paraformaldehyde after each one of these increasing incubation times. Simultaneously, the externalised “12,000” vesicles were prepared from aliquots of the growth medium and concentrated (×20). […]

COc1cccc2c1C(=O)c1c(O)c3c(c(O)c1C2=O)C[C@@](O)(C(=O)CO)C[C@@H]3O[C@H]1C[C@H](N)[C@H](O)[C@H](C)O1 [Doxorubicine]
release of the molecule into vesicles (Dd cells [1]): also released into “12,000” vesicles

CCCCCC(=O)c1c(O)c(Cl)c(OC)c(Cl)c1O [DIF]
differentiation of K562 cells (Leukemic K562 cells): differentiate and recover the capacity to synthesize haemoglobin

Cc1cc(O)c2c(=O)c3c(O)cc(O)c4c5c(O)cc(O)c6c(=O)c7c(O)cc(C)c8c1c2c(c34)c(c78)c65 [hypericin]
toxicity towards Dd cells (Dd cells [2]; hypericin 25 μM in growth medium): without any apparent toxicity

CCOc1ccc(-c2nc3ccc(-c4nc5ccc(N6CCN(C)CC6)cc5[nH]4)cc3[nH]2)cc1 [HO342, Hoechst 33342]
cytotoxicity during incubation with Dd cells in the growth medium (Dd cells [2]; HO342 10 μg/ml, continuously since initiation of culture): absence of cytotoxicity
